Source: patent publication US8410161B2, “Thioxanthone ring system derivatives” (National Defense Medical Center, priority 2010, dated 2013)

Tests used:
[1] = tested on: HOP-62; test: NCI in vitro DTP human cell line screen, HOP-62; type: cell-based; conditions: Non-Small Cell Lung Cancer, 1.00E−5 Molar
Method: (§1) Then, a cell toxicity assay of the cancer lines made by National Cancer Institute will be discussed as follows. The cell toxicity assay is performed by choosing ten compounds (existing certification numbers) from the 59 compounds disclosed in the present invention first.

[2] = tested on: SK-MEL-28; test: NCI in vitro DTP human cell line screen, SK-MEL-28; type: cell-based; conditions: Melanoma, 1.00E−5 Molar
Method: as §1

[3] = tested on: HCT-15; test: NCI in vitro DTP human cell line screen, HCT-15; type: cell-based; conditions: Colon Cancer, 1.00E−5 Molar
Method: as §1

[4] = tested on: M14; test: NCI in vitro DTP human cell line screen, M14; type: cell-based; conditions: Melanoma, 1.00E−5 Molar
Method: as §1

[5] = tested on: OVCAR-8; test: NCI in vitro DTP human cell line screen, OVCAR-8; type: cell-based; conditions: Ovarian Cancer, 1.00E−5 Molar
Method: as §1

[6] = tested on: RXF 393; test: NCI in vitro DTP human cell line screen, RXF 393; type: cell-based; conditions: Renal Cancer, 1.00E−5 Molar
Method: as §1

[7] = tested on: SK-MEL-2; test: NCI in vitro DTP human cell line screen, SK-MEL-2; type: cell-based; conditions: Melanoma, 1.00E−5 Molar
Method: as §1

[8] = tested on: U251; test: NCI in vitro DTP human cell line screen, U251; type: cell-based; conditions: CNS Cancer, 1.00E−5 Molar
Method: as §1

[9] = tested on: SNB-19; test: NCI in vitro DTP human cell line screen, SNB-19; type: cell-based; conditions: CNS Cancer, 1.00E−5 Molar
Method: as §1

[10] = tested on: PC-3; test: NCI in vitro DTP human cell line screen, PC-3; type: cell-based; conditions: Prostate Cancer, 1.00E−5 Molar
Method: as §1

[11] = tested on: ACHN; test: NCI in vitro DTP human cell line screen, ACHN; type: cell-based; conditions: Renal Cancer, 1.00E−5 Molar
Method: as §1

[12] = tested on: BT-549; test: NCI in vitro DTP human cell line screen, BT-549; type: cell-based; conditions: Breast Cancer, 1.00E−5 Molar
Method: as §1

[13] = tested on: HCT-116; test: NCI in vitro DTP human cell line screen, HCT-116; type: cell-based; conditions: Colon Cancer, 1.00E−5 Molar
Method: as §1

[14] = tested on: SN12C; test: NCI in vitro DTP human cell line screen, SN12C; type: cell-based; conditions: Renal Cancer, 1.00E−5 Molar
Method: as §1

[15] = tested on: T-47D; test: NCI in vitro DTP human cell line screen, T-47D; type: cell-based; conditions: Breast Cancer, 1.00E−5 Molar
Method: as §1

[16] = tested on: HS 578-T; test: NCI in vitro DTP human cell line screen, HS 578-T; type: cell-based; conditions: Breast Cancer, 1.00E−5 Molar
Method: as §1

[17] = tested on: OVCAR-3; test: NCI in vitro DTP human cell line screen, OVCAR-3; type: cell-based; conditions: Ovarian Cancer, 1.00E−5 Molar
Method: as §1

[18] = tested on: LOX IMVI; test: NCI in vitro DTP human cell line screen, LOX IMVI; type: cell-based; conditions: Melanoma, 1.00E−5 Molar
Method: as §1

[19] = tested on: HCC-2998; test: NCI in vitro DTP human cell line screen, HCC-2998; type: cell-based; conditions: Colon Cancer, 1.00E−5 Molar
Method: as §1

[20] = tested on: MDA-MB-231/ATCC; test: NCI in vitro DTP human cell line screen, MDA-MB-231/ATCC; type: cell-based; conditions: Breast Cancer, 1.00E−5 Molar
Method: as §1

[21] = tested on: K562; test: NCI in vitro DTP human cell line screen, K562; type: cell-based; conditions: Leukemia, 1.00E−5 Molar
Method: as §1

[22] = tested on: SW-620; test: NCI in vitro DTP human cell line screen, SW-620; type: cell-based; conditions: Colon Cancer, 1.00E−5 Molar
Method: as §1

[23] = tested on: SR; test: NCI in vitro DTP human cell line screen, SR; type: cell-based; conditions: Leukemia, 1.00E−5 Molar
Method: as §1

[24] = tested on: NCI-H460; test: NCI in vitro DTP human cell line screen, NCI-H460; type: cell-based; conditions: Non-Small Cell Lung Cancer, 1.00E−5 Molar
Method: as §1

[25] = tested on: IGROV1; test: NCI in vitro DTP human cell line screen, IGROV1; type: cell-based; conditions: Ovarian Cancer, 1.00E−5 Molar
Method: as §1

[26] = tested on: MALME-3M; test: NCI in vitro DTP human cell line screen, MALME-3M; type: cell-based; conditions: Melanoma, 1.00E−5 Molar
Method: as §1

[27] = tested on: 786-0; test: NCI in vitro DTP human cell line screen, 786-0; type: cell-based; conditions: Renal Cancer, 1.00E−5 Molar
Method: as §1

[28] = tested on: OVCAR-4; test: NCI in vitro DTP human cell line screen, OVCAR-4; type: cell-based; conditions: Ovarian Cancer, 1.00E−5 Molar
Method: as §1

[29] = tested on: SK-OV-3; test: NCI in vitro DTP human cell line screen, SK-OV-3; type: cell-based; conditions: Ovarian Cancer, 1.00E−5 Molar
Method: as §1

[30] = tested on: NCI-H522; test: NCI in vitro DTP human cell line screen, NCI-H522; type: cell-based; conditions: Non-Small Cell Lung Cancer, 1.00E−5 Molar
Method: as §1

[31] = tested on: HT29; test: NCI in vitro DTP human cell line screen, HT29; type: cell-based; conditions: Colon Cancer, 1.00E−5 Molar
Method: as §1

[32] = tested on: SF-268; test: NCI in vitro DTP human cell line screen, SF-268; type: cell-based; conditions: CNS Cancer, 1.00E−5 Molar
Method: as §1

[33] = tested on: RPMI-8226; test: NCI in vitro DTP human cell line screen, RPMI-8226; type: cell-based; conditions: Leukemia, 1.00E−5 Molar
Method: as §1

[34] = tested on: HL-60(TB); test: NCI in vitro DTP human cell line screen, HL-60(TB); type: cell-based; conditions: Leukemia, 1.00E−5 Molar
Method: as §1

[35] = tested on: A control cell lines; test: MTT assay, A control cell lines (lung cancer cell); type: cell-based
Text: Please refer to Table 1 and FIGS. 4A-4C. According to a MTT assay (Table 1), various cell viabilities of the A control cell lines can be obtained and illustrated in FIG. 4A while the compounds No. 2˜30 are used to treat A control cell lines, wherein A control cell lines are lung cancer cell.

[36] = tested on: COLO 205; test: NCI in vitro DTP human cell line screen, COLO 205; type: cell-based; conditions: Colon Cancer, 1.00E−5 Molar
Method: as §1

[37] = tested on: MDA-MB-468; test: NCI in vitro DTP human cell line screen, MDA-MB-468; type: cell-based; conditions: Breast Cancer, 1.00E−5 Molar
Method: as §1

[38] = tested on: TK-10; test: NCI in vitro DTP human cell line screen, TK-10; type: cell-based; conditions: Renal Cancer, 1.00E−5 Molar
Method: as §1

[39] = tested on: SK-MEL-5; test: NCI in vitro DTP human cell line screen, SK-MEL-5; type: cell-based; conditions: Melanoma, 1.00E−5 Molar
Method: as §1

[40] = tested on: UO-31; test: NCI in vitro DTP human cell line screen, UO-31; type: cell-based; conditions: Renal Cancer, 1.00E−5 Molar
Method: as §1

[41] = tested on: A3 cell lines; test: MTT assay, A3 cell lines (lung cancer stem cell); type: cell-based
Text: Please to FIG. 4B, various cell viabilities of the A3 cell lines can be obtained through the MTT assay and illustrated in FIG. 4B while the compounds No. 1˜30 are used to treat A3 cell lines, wherein A3 cell lines are lung cancer stem cell.

[42] = tested on: HOP-92; test: NCI in vitro DTP human cell line screen, HOP-92; type: cell-based; conditions: Non-Small Cell Lung Cancer, 1.00E−5 Molar
Method: as §1

[43] = tested on: 60 cancer lines; test: NCI cell toxicity assay of 60 cancer lines, whole panel summary; type: cell-based, human; conditions: 1.00E−5 Molar
Method: as §1

[44] = tested on: NCI-H322M; test: NCI in vitro DTP human cell line screen, NCI-H322M; type: cell-based; conditions: Non-Small Cell Lung Cancer, 1.00E−5 Molar
Method: as §1

[45] = tested on: DU145; test: NCI in vitro DTP human cell line screen, DU145; type: cell-based; conditions: Prostate Cancer, 1.00E−5 Molar
Method: as §1

[46] = tested on: MOLT-4; test: NCI in vitro DTP human cell line screen, MOLT-4; type: cell-based; conditions: Leukemia, 1.00E−5 Molar
Method: as §1

[47] = tested on: UACC-257; test: NCI in vitro DTP human cell line screen, UACC-257; type: cell-based; conditions: Melanoma, 1.00E−5 Molar
Method: as §1

[48] = tested on: SNB-75; test: NCI in vitro DTP human cell line screen, SNB-75; type: cell-based; conditions: CNS Cancer, 1.00E−5 Molar
Method: as §1

[49] = tested on: SF-539; test: NCI in vitro DTP human cell line screen, SF-539; type: cell-based; conditions: CNS Cancer, 1.00E−5 Molar
Method: as §1

[50] = MTT assay, HEL299 fibroblast; type: cell-based; conditions: human
Text: Please refer to FIG. 4C, various cell viabilities of the HEL299 cell lines can be obtained through the MTT assay while the compounds No. 1˜30 are used to treat HEL299 cell lines, wherein HEL299 cell lines are fibroblast.

[51] = tested on: CCRF-CEM; test: NCI in vitro DTP human cell line screen, CCRF-CEM; type: cell-based; conditions: Leukemia, 1.00E−5 Molar
Method: as §1

[52] = tested on: KM12; test: NCI in vitro DTP human cell line screen, KM12; type: cell-based; conditions: Colon Cancer, 1.00E−5 Molar
Method: as §1

[53] = tested on: OVCAR-5; test: NCI in vitro DTP human cell line screen, OVCAR-5; type: cell-based; conditions: Ovarian Cancer, 1.00E−5 Molar
Method: as §1

[54] = tested on: NCI-H226; test: NCI in vitro DTP human cell line screen, NCI-H226; type: cell-based; conditions: Non-Small Cell Lung Cancer, 1.00E−5 Molar
Method: as §1

[55] = tested on: NCI/ADR-RES; test: NCI in vitro DTP human cell line screen, NCI/ADR-RES; type: cell-based; conditions: Ovarian Cancer, 1.00E−5 Molar
Method: as §1

[56] = tested on: UACC-62; test: NCI in vitro DTP human cell line screen, UACC-62; type: cell-based; conditions: Melanoma, 1.00E−5 Molar
Method: as §1

[57] = tested on: MCF7; test: NCI in vitro DTP human cell line screen, MCF7; type: cell-based; conditions: Breast Cancer, 1.00E−5 Molar
Method: as §1

[58] = tested on: NCI-H23; test: NCI in vitro DTP human cell line screen, NCI-H23; type: cell-based; conditions: Non-Small Cell Lung Cancer, 1.00E−5 Molar
Method: as §1

O=c1c2ccccc2sc2c(Cl)c(SCc3ccc(F)cc3)ccc12 [No. 24, 4-Chloro-3-(4-fluorobenzylthio)-9H-thioxanthen-9-one]
Growth Percent [1]: 70.93% | Growth Percent [2]: 107.78% | Growth Percent [3]: 84.86% | Growth Percent [4]: 93.91% | Growth Percent [5]: 85.39% | Growth Percent [6]: 92.20% | Growth Percent [7]: 108.61% | Growth Percent [8]: 54.73% | Growth Percent [9]: 77.05% | Growth Percent [10]: 86.19% | Growth Percent [11]: 60.81% | Growth Percent [12]: 88.80% | Growth Percent [13]: 76.97% | Growth Percent [14]: 84.46% | Growth Percent [15]: 81.88% | Growth Percent [16]: 67.70% | Growth Percent [17]: 105.27% | Growth Percent [18]: 81.78% | Growth Percent [19]: 100.08% | Growth Percent [20]: 81.64% | Growth Percent [21]: 90.35% | Growth Percent [22]: 78.63% | Growth Percent [23]: 23.41% | Growth Percent [24]: 60.27% | Growth Percent [25]: 79.84% | Growth Percent [26]: 93.42% | Growth Percent [27]: 91.67% | Growth Percent [28]: 39.31% | Growth Percent [29]: 90.11% | Growth Percent [30]: 76.14% | Growth Percent [31]: 79.24% | Growth Percent [32]: 95.00% | Growth Percent [33]: 92.73% | Growth Percent [34]: 109.87% | cell viabilities of A control cell lines (MTT assay) [35]: 35.5% | Growth Percent [36]: 86.59% | Growth Percent [37]: 92.16% | Growth Percent [38]: 83.61% | Growth Percent [39]: 95.97% | Growth Percent [40]: 95.13% | cell viabilities of A3 cell lines (MTT assay) [41]: 47.8% | Growth Percent [42]: 76.43% | Growth Percent, Mean ([43]; mean over all cell lines): 85.42% | cancer types with the better inhibition effect (in words) ([43]; summary of Table 3): better inhibition effect on Leukemia and central nervous system cancer | Growth Percent [44]: 89.87% | Growth Percent [45]: 103.70% | Growth Percent [46]: 93.42% | Growth Percent [47]: 103.43% | Growth Percent [48]: 64.79% | Growth Percent [49]: 103.66% | viability [50]: 62.7 ± 4.89% | Growth Percent [51]: 68.02% | Growth Percent [52]: 102.36% | Growth Percent [53]: 108.14% | Growth Percent [54]: 92.71% | Growth Percent [55]: 92.71% | Growth Percent [56]: 85.61% | Growth Percent [57]: 89.93% | Growth Percent [58]: 93.31%
